Experimental data: PubChem BioAssay AID1963838 (Molecular Pharmacology Branch, DTP, NCI, 2024)

Tested on: 855422-203-R-J1-PDC complex spheroid viability
Assay: Anticancer human tumor 855422-203-R-J1-PDC patient-derived bladder carcinoma cell line growth inhibition [POLQ]
Settings: for IC50: curve of first compound; for viability, T/C: stronger effect = lower value; active = viability on the fitted dose curve at most 10% of control; inactive = the rest
In short: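 Three-cell-type spheroids modelling solid tumor plus stroma served as the readout system; POL inhibitors were tested individually and in combination, concentration ranges set by clinical Cmax where known.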

[1] = second compound 0.0316 µM, first compound 0.0316 µM
[2] = second compound 0.0316 µM, first compound 0.1 µM
[3] = second compound 0.0316 µM, first compound 0.316 µM
[4] = second compound 0.0316 µM, first compound 1 µM
[5] = second compound 0.0316 µM, first compound 3.16 µM
[6] = second compound 0.0316 µM, first compound 10 µM
[7] = second compound 0.1 µM, first compound 0.0316 µM
[8] = second compound 0.1 µM, first compound 0.1 µM
[9] = second compound 0.1 µM, first compound 0.316 µM
[10] = second compound 0.1 µM, first compound 1 µM
[11] = second compound 0.1 µM, first compound 3.16 µM
[12] = second compound 0.1 µM, first compound 10 µM
[13] = second compound 0.316 µM, first compound 0.0316 µM
[14] = second compound 0.316 µM, first compound 0.1 µM
[15] = second compound 0.316 µM, first compound 0.316 µM
[16] = second compound 0.316 µM, first compound 1 µM
[17] = second compound 0.316 µM, first compound 3.16 µM
[18] = second compound 0.316 µM, first compound 10 µM
[19] = second compound 1 µM, first compound 0.0316 µM
[20] = second compound 1 µM, first compound 0.1 µM
[21] = second compound 1 µM, first compound 0.316 µM
[22] = second compound 1 µM, first compound 1 µM
[23] = second compound 1 µM, first compound 3.16 µM
[24] = second compound 1 µM, first compound 10 µM
[25] = second compound 3.16 µM, first compound 0.0316 µM
[26] = second compound 3.16 µM, first compound 0.1 µM
[27] = second compound 3.16 µM, first compound 0.316 µM
[28] = second compound 3.16 µM, first compound 1 µM
[29] = second compound 3.16 µM, first compound 3.16 µM
[30] = second compound 3.16 µM, first compound 10 µM
[31] = second compound 10 µM, first compound 0.0316 µM
[32] = second compound 10 µM, first compound 0.1 µM
[33] = second compound 10 µM, first compound 0.316 µM
[34] = second compound 10 µM, first compound 1 µM
[35] = second compound 10 µM, first compound 3.16 µM
[36] = second compound 10 µM, first compound 10 µM
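Also: spheroids exposed to compounds for seven days before readout.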

C#Cc1c(F)ccc2cc(O)cc(-c3ncc4c(N5CC6CCC(C5)N6)nc(OCC56CCCN5CC(F)C6)nc4c3F)c12 (stereo not given) + Cc1cccc(N(C)C(=O)C2C(O)CCN2c2nc(C)cc(C(F)(F)F)c2C#N)c1
inactive: viability, T/C [1] 106% | viability, T/C [2] 105% | viability, T/C [3] 108% | viability, T/C [4] 101% | viability, T/C [5] 105% | viability, T/C [6] 103% | viability, T/C [7] 103% | viability, T/C [8] 103% | viability, T/C [9] 102% | viability, T/C [10] 96.7% | viability, T/C [11] 103% | viability, T/C [12] 103% | viability, T/C [13] 106% | viability, T/C [14] 103% | viability, T/C [15] 99.4% | viability, T/C [16] 97.4% | viability, T/C [17] 114% | viability, T/C [18] 110% | viability, T/C [19] 109% | viability, T/C [20] 99.7% | viability, T/C [21] 106% | viability, T/C [22] 96.8% | viability, T/C [23] 111% | viability, T/C [24] 113% | viability, T/C [25] 101% | viability, T/C [26] 92.3% | viability, T/C [27] 97.5% | viability, T/C [28] 98.3% | viability, T/C [29] 107% | viability, T/C [30] 112% | viability, T/C [31] 102% | viability, T/C [32] 107% | viability, T/C [33] 112% | viability, T/C [34] 94.3% | viability, T/C [35] 102% | viability, T/C [36] 100%
> 10 µM: IC50 (second compound 0.0316 µM) | IC50 (second compound 0.1 µM) | IC50 (second compound 0.316 µM) | IC50 (second compound 1 µM) | IC50 (second compound 3.16 µM) | IC50 (second compound 10 µM)

C=CC(=O)N1CCN(c2nc(=O)n(-c3c(C)ccnc3C(C)C)c3nc(-c4c(O)cccc4F)c(F)cc23)C(C)C1 (stereo not given) + Cc1cccc(N(C)C(=O)C2C(O)CCN2c2nc(C)cc(C(F)(F)F)c2C#N)c1
> 10 µM: IC50 (second compound 0.0316 µM) | IC50 (second compound 0.1 µM) | IC50 (second compound 0.316 µM) | IC50 (second compound 1 µM) | IC50 (second compound 3.16 µM) | IC50 (second compound 10 µM)
inactive: viability, T/C [1] 98.9% | viability, T/C [2] 112% | viability, T/C [3] 103% | viability, T/C [4] 107% | viability, T/C [5] 121% | viability, T/C [6] 114% | viability, T/C [7] 107% | viability, T/C [8] 105% | viability, T/C [9] 108% | viability, T/C [10] 114% | viability, T/C [11] 121% | viability, T/C [12] 111% | viability, T/C [13] 107% | viability, T/C [14] 89.5% | viability, T/C [15] 99.7% | viability, T/C [16] 106% | viability, T/C [17] 128% | viability, T/C [18] 121% | viability, T/C [19] 96.4% | viability, T/C [20] 108% | viability, T/C [21] 109% | viability, T/C [22] 107% | viability, T/C [23] 133% | viability, T/C [24] 107% | viability, T/C [25] 104% | viability, T/C [26] 96% | viability, T/C [27] 113% | viability, T/C [28] 105% | viability, T/C [29] 118% | viability, T/C [30] 117% | viability, T/C [31] 102% | viability, T/C [32] 108% | viability, T/C [33] 107% | viability, T/C [34] 109% | viability, T/C [35] 123% | viability, T/C [36] 114%

CCc1cc2c(N3CCc4c(cc(Cn5ccnc5)cc4-c4cn(C)nc4C(F)(F)F)C3=O)cc(C)nc2c(OC)n1 + Cc1cccc(N(C)C(=O)C2C(O)CCN2c2nc(C)cc(C(F)(F)F)c2C#N)c1
7.37 µM: IC50 (second compound 1 µM)
2.91 µM: IC50 (second compound 0.0316 µM)
6.15 µM: IC50 (second compound 0.1 µM)
6.91 µM: IC50 (second compound 0.316 µM)
9.61 µM: IC50 (second compound 3.16 µM)
6.32 µM: IC50 (second compound 10 µM)
inactive: viability, T/C [1] 102% | viability, T/C [2] 134% | viability, T/C [3] 134% | viability, T/C [4] 72.5% | viability, T/C [5] 61.1% | viability, T/C [6] 35.2% | viability, T/C [7] 101% | viability, T/C [8] 144% | viability, T/C [9] 119% | viability, T/C [10] 91.1% | viability, T/C [11] 66.8% | viability, T/C [12] 39.1% | viability, T/C [13] 126% | viability, T/C [14] 147% | viability, T/C [15] 103% | viability, T/C [16] 111% | viability, T/C [17] 70.7% | viability, T/C [18] 39.4% | viability, T/C [19] 119% | viability, T/C [20] 125% | viability, T/C [21] 113% | viability, T/C [22] 81% | viability, T/C [23] 71.7% | viability, T/C [24] 42.4% | viability, T/C [25] 135% | viability, T/C [26] 128% | viability, T/C [27] 143% | viability, T/C [28] 95.3% | viability, T/C [29] 71.4% | viability, T/C [30] 46.1% | viability, T/C [31] 110% | viability, T/C [32] 132% | viability, T/C [33] 145% | viability, T/C [34] 98.2% | viability, T/C [35] 73.1% | viability, T/C [36] 36.1%

CCc1cc2c(N3CCc4c(cc(Cn5ccnc5)cc4-c4cn(C)nc4C(F)(F)F)C3=O)ccnc2c(OC)n1 + Cc1cccc(N(C)C(=O)C2C(O)CCN2c2nc(C)cc(C(F)(F)F)c2C#N)c1
> 10 µM: IC50 (second compound 0.1 µM) | IC50 (second compound 0.316 µM) | IC50 (second compound 1 µM)
inactive: viability, T/C [1] 111% | viability, T/C [2] 154% | viability, T/C [3] 110% | viability, T/C [4] 96.3% | viability, T/C [5] 70.9% | viability, T/C [6] 42.2% | viability, T/C [7] 99.9% | viability, T/C [8] 147% | viability, T/C [9] 113% | viability, T/C [10] 85.7% | viability, T/C [11] 79.6% | viability, T/C [12] 47.5% | viability, T/C [13] 102% | viability, T/C [14] 151% | viability, T/C [15] 107% | viability, T/C [16] 107% | viability, T/C [17] 80.4% | viability, T/C [18] 54.2% | viability, T/C [19] 125% | viability, T/C [20] 162% | viability, T/C [21] 110% | viability, T/C [22] 90% | viability, T/C [23] 79.7% | viability, T/C [24] 51.5% | viability, T/C [25] 138% | viability, T/C [26] 166% | viability, T/C [27] 103% | viability, T/C [28] 115% | viability, T/C [29] 74.7% | viability, T/C [30] 47.8% | viability, T/C [31] 116% | viability, T/C [32] 141% | viability, T/C [33] 158% | viability, T/C [34] 112% | viability, T/C [35] 88.3% | viability, T/C [36] 46.3%
7.34 µM: IC50 (second compound 0.0316 µM)
9.15 µM: IC50 (second compound 10 µM)
9.2 µM: IC50 (second compound 3.16 µM)

COc1cc2cc(C(=O)CCC(=O)O)sc2cc1OC + Cc1cccc(N(C)C(=O)C2C(O)CCN2c2nc(C)cc(C(F)(F)F)c2C#N)c1
inactive: viability, T/C [1] 111% | viability, T/C [2] 118% | viability, T/C [3] 106% | viability, T/C [4] 94% | viability, T/C [5] 108% | viability, T/C [6] 113% | viability, T/C [7] 108% | viability, T/C [8] 118% | viability, T/C [9] 100% | viability, T/C [10] 108% | viability, T/C [11] 122% | viability, T/C [12] 125% | viability, T/C [13] 96.6% | viability, T/C [14] 149% | viability, T/C [15] 103% | viability, T/C [16] 95.5% | viability, T/C [17] 116% | viability, T/C [18] 102% | viability, T/C [19] 85.4% | viability, T/C [20] 131% | viability, T/C [21] 102% | viability, T/C [22] 129% | viability, T/C [23] 112% | viability, T/C [24] 89.2% | viability, T/C [25] 118% | viability, T/C [26] 122% | viability, T/C [27] 102% | viability, T/C [28] 126% | viability, T/C [29] 129% | viability, T/C [30] 120% | viability, T/C [31] 108% | viability, T/C [32] 127% | viability, T/C [33] 121% | viability, T/C [34] 114% | viability, T/C [35] 114% | viability, T/C [36] 114%
> 10 µM: IC50 (second compound 0.0316 µM) | IC50 (second compound 0.1 µM) | IC50 (second compound 0.316 µM) | IC50 (second compound 1 µM) | IC50 (second compound 3.16 µM) | IC50 (second compound 10 µM)
